Measured values published in patent publication US12636269B2, “Compositions and methods of use of gamma-ketoaldheyde scavengers for treating, preventing or improving fibrosis of the liver” (MTI Biotech, Inc., priority 2017, dated 2026).

Assays:
primary human HSC = settings: non-cytotoxic levels; cited from earlier work
DIAMOND mice = test: liver histology (fibrosis, steatosis, ballooning, inflammation) in DIAMOND mice on high-fat, high-sugar diet; type: in vivo, mouse; settings: for fibrosis score: Picosirius Red staining, scale of 0 to 4, 1 g/L in drinking water, 12 weeks
From the text: DIAMOND (Diet Induced Animal Model of Non-alcoholic fatty liver Disease) is a proprietary isogenic mouse strain that sequentially develops non-alcoholic fatty liver disease, non-alcoholic steatohepatitis, fibrosis, and hepatocellular carcinoma in response to a high-fat, high-sugar diet. Disease progression in the DIAMOND mice uniquely parallels human disease progression, including histopathology.
(§1) Twelve 8-wk old male DIAMOND mice were placed on ad libitum high fat diet (Harlan—ENVIGO TD.88317) and water containing glucose (18.9% w/v) and fructose (23.1% w/v); all mice remained on this diet throughout the study protocol. At 12 weeks of age, mice were divided into two groups: 1) 2-HOBA (n=6), and 2) vehicle controls (n=6). Animals in the 2-HOBA group received 2-HOBA in drinking water (1 g/L water with glucose and fructose). The vehicle control group received water without 2-HOBA (with glucose and fructose). Body weight and food intake were measured weekly. At […] of age, all animals underwent a glucose tolerance test (GTT) and MRI imaging to assess hepatic fat. For the GTT, animals were fasted for 12 hours and then glucose (2 g/kg bw of a 100 mg/mL glucose in sterile water) was administered by oral gavage. Blood was sampled at 0, 15, 30, 45, 60, 90, and 120 minutes after glucose administration and area under the curve was calculated. Animals were sacrificed at 24 weeks of age (12 weeks of 2-HOBA or vehicle treatment). Tissues and serum were collected for analysis.
Liver sections were stained with hematoxylin and eosin (for scoring of steatosis, hepatocyte ballooning, and inflammation) and Sirius red (for assessment of fibrosis). Scoring was performed in a blinded manner for steatosis, ballooning, inflammation, and necrosis using the following criterial, Steatosis (0-4): 0=<5%; 1=5-25%; 2=25-50%; 3=50-75%; 4=75-100%. Ballooning (0-3): 0=absent; 1=mild (focal involving fewer than three hepatocytes); 2=moderate (focal involving more than three hepatocytes or multifocal); 3=prominent (multifocal with more than two foci of three or more hepatocytes). Inflammation (0-4): 0=absent; 1=minimal (zero to one focus per 20× field); 2=mild (two foci); 3=moderate (three foci); 4=severe (four or more foci). Serum levels of glucose, alanine transaminase, and aspartate transaminase were measured. Liver mRNA expression was assessed via RT-qPCR for the following genes: Tnfa, Nlrpla, Il1b, Il18, Timp1, Colla1, ProCard, Nlrp3, Casp1, ProIl1b, Tgfb1, Bambi, Pdk4, and Gapdh. Two-tailed independent samples t-tests were used to compare endpoints between 2-HOBA and vehicle treated groups. Significance was set at α=0.05.

Colla1 = test: liver mRNA expression by RT-qPCR in DIAMOND mice, Colla1; type: in vivo, mouse; settings: qRT-PCR, not statistically significant (p=0.08)
From the text: as §1, with “Animals were sacrificed at 24 weeks of age (12 weeks of 2-HOBA or vehicle treatment). Tissues and serum were collected for analysis.” left out
(§2) Liver sections were stained with hematoxylin and eosin (for scoring of steatosis, hepatocyte ballooning, and inflammation) and Sirius red (for assessment of fibrosis). […] Serum levels of glucose, alanine transaminase, and aspartate transaminase were measured. Liver mRNA expression was assessed via RT-qPCR for the following genes: Tnfa, Nlrpla, Il1b, Il18, Timp1, Colla1, ProCard, Nlrp3, Casp1, ProIl1b, Tgfb1, Bambi, Pdk4, and Gapdh. […]

Timp1 = test: liver mRNA expression by RT-qPCR in DIAMOND mice, Timp1; type: in vivo, mouse; settings: qRT-PCR
From the text: as §1, with “Animals were sacrificed at 24 weeks of age (12 weeks of 2-HOBA or vehicle treatment). Tissues and serum were collected for analysis.” left out
as §2

[1] = in vitro and in vivo; cited from earlier work
cyclooxygenase enzymes = settings: cited from earlier work
HepG2 cells = settings: cited from earlier work
[2] = compared to vehicle treated DIAMOND mice

15-E2-isolevuglandin [15-E2-IsoLG]
HSC activation (α-SMA expression, MAPK activation, cytokine production) (primary human HSC): promoted HSC activation

NCc1ccccc1O [2-HOBA, 2-Hydroxybenzylamine]
hepatic fibrosis (DIAMOND mice; DIAMOND mice): attenuates | markers of inflammation (DIAMOND mice; DIAMOND mice): without altering | fibrosis score (DIAMOND mice; the remaining two treated mice): 1 | fibrosis score (DIAMOND mice; three of the treated mice): 0 | degree of hepatic steatosis (DIAMOND mice; [2]): similar | degree of hepatocellular ballooning (DIAMOND mice; [2]): similar | incidence of fibrosis (DIAMOND mice; compared to vehicle treated DIAMOND mice, p=0.03): significantly lower | Colla1 mRNA expression levels (Colla1): tended to be lower | liver Timp1 mRNA expression (Timp1): reduced | protein and lipid adduction [1]: preventing protein and lipid adduction | inhibition of cyclooxygenase enzymes (cyclooxygenase enzymes): does not inhibit | protection against H2O2-induced cytotoxicity (HepG2 cells): dramatically protected
